Data taken from patent US20120115727A1, “CONTROL OF PHENOXYALKANOIC ACID HERBICIDE-RESISTANT WEEDS WITH 4-AMINO-3-CHLORO-6-(4-CHLORO-2-FLUORO-3-METHOXYPHENYL)PYRIDINE-2-CARBOXYLIC ACID AND ITS SALTS OR ESTERS” (DOW AGROSCIENCES LLC, priority 2010, published 2012).

Legend:
Assay in all cases: Postemergence herbicidal activity, greenhouse, visual injury
Assay type in all cases: in vivo, Papaver rhoeas
Details in all cases: 20-22 d after application
[1] = tested on: PAPRH-S1F00101 (phenoxyalkanoic acid herbicide-resistant corn poppy)
Experimental: (§1) Seeds of the phenoxyalkanoic acid herbicide-resistant and susceptible plant species were planted in Sun Gro MetroMix® 306 planting mixture, which typically has a pH of 6.0 to 6.8 and an organic matter content of about 30 percent, in plastic pots with a surface area of 103.2 square centimeters (cm^2). When required to ensure good germination and healthy plants, a fungicide treatment and/or other chemical or physical treatment was applied. The plants were grown for 7-36 days (d) in a greenhouse with an approximate 14-hour (h) photo-period which was maintained at about 18° C. during the day and 17° C. during the night. Nutrients and water were added on a regular basis and supplemental lighting was provided with overhead metal halide 1000-Watt lamps as necessary. The plants were employed for testing when they reached the second or third true leaf stage.
(§2) Treatments consisted of the acid or esters of 4-amino-3-chloro-6-(4-chloro-2-fluoro-3-methoxyphenyl)pyridine-2-carboxylic acid (Compound I) and 2,4-D, mecoprop and 2-(4-chloro-2-methyl-phenoxy)acetic acid (MCPA) alone. Weighed amounts of the herbicides were dissolved in a volume of 97:3 volume-per-volume (v/v) acetone/dimethylsulfoxide (DMSO) to obtain concentrated solutions. […] The concentrated solutions of the test compound were diluted with the addition of an aqueous mixture containing acetone, water, isopropyl alcohol, DMSO, Agri-Dex crop oil concentrate, and Triton® X-77 surfactant in a 64.7:26.0:6.7:2.0:0.7:0.01 v/v ratio. Test compounds were diluted to the appropriate application rate with a dilution solution which was prepared by mixing the appropriate volume of 97:3 v/v acetone/DMSO and the appropriate volume of an aqueous mixture containing acetone, water, isopropyl alcohol, DMSO, Agri-Dex crop oil concentrate, and Triton® X-77 surfactant in a 64.7:26.0:6.7:2.0:0.7:0.01 v/v ratio. Compound requirements are based upon a 12 mL application volume at a rate of 187 liters per hectare (L/ha). Spray solutions of 2,4-D, mecoprop and MCPA were prepared by diluting an aliquot of the concentrated herbicide with an aqueous mixture containing 1.25% v/v Agri-Dex. 2,4-D, mecoprop and MCPA were applied at 1×, 2× and 4× of the recommended application rate.
(§3) Formulated compounds were applied to the plant material with an overhead Mandel track sprayer equipped with 8002E nozzles calibrated to deliver 187 L/ha over an application area of 0.503 square meters (m^2) at a spray height of 18 inches (43 centimeters (cm)) above average plant canopy. Control plants were sprayed in the same manner with the solvent blank.
(§4) The treated plants and control plants were placed in a greenhouse as described above and watered by sub-irrigation to prevent wash-off of the test compounds. After 20-22 d, the condition of the test plants as compared with that of the control plants was determined visually and scored on a scale of 0 to 100 percent where 0 corresponds to no injury and 100 corresponds to complete kill.

[2] = tested on: PAPRH-S2F01502 (phenoxyalkanoic acid herbicide-resistant corn poppy)
Experimental: as §1, §2, §3, §4

[3] = tested on: PAPRH-S4F00101 (phenoxyalkanoic acid herbicide-resistant corn poppy)
Experimental: as §1, §2, §3, §4

[4] = tested on: PAPRH-S4F00103 (phenoxyalkanoic acid herbicide-resistant corn poppy)
Experimental: as §1, §2, §3, §4

[5] = tested on: PAPRH-Susceptible (susceptible corn poppy)
Experimental: as §1, §2, §3, §4

Structure (SMILES)	Activity (visual injury, 0 = no injury, 100 = complete kill) PAPRH-S1F00101 ([1]; 800 g ae/ha)	Activity (visual injury, 0 = no injury, 100 = complete kill) PAPRH-S1F00101 ([1]; 1600 g ae/ha)	Activity (visual injury, 0 = no injury, 100 = complete kill) PAPRH-S1F00101 ([1]; 3200 g ae/ha)	Activity (visual injury, 0 = no injury, 100 = complete kill) PAPRH-S2F01502 ([2]; 800 g ae/ha)	Activity (visual injury, 0 = no injury, 100 = complete kill) PAPRH-S2F01502 ([2]; 1600 g ae/ha)	Activity (visual injury, 0 = no injury, 100 = complete kill) PAPRH-S2F01502 ([2]; 3200 g ae/ha)	Activity (visual injury, 0 = no injury, 100 = complete kill) PAPRH-S4F00101 ([3]; 800 g ae/ha)	Activity (visual injury, 0 = no injury, 100 = complete kill) PAPRH-S4F00101 ([3]; 1600 g ae/ha)	Activity (visual injury, 0 = no injury, 100 = complete kill) PAPRH-S4F00101 ([3]; 3200 g ae/ha)	Activity (visual injury, 0 = no injury, 100 = complete kill) PAPRH-S4F00103 ([4]; 800 g ae/ha)	Activity (visual injury, 0 = no injury, 100 = complete kill) PAPRH-S4F00103 ([4]; 1600 g ae/ha)	Activity (visual injury, 0 = no injury, 100 = complete kill) PAPRH-S4F00103 ([4]; 3200 g ae/ha)	Activity (visual injury, 0 = no injury, 100 = complete kill) PAPRH-Susceptible ([5]; 800 g ae/ha)	Activity (visual injury, 0 = no injury, 100 = complete kill) PAPRH-Susceptible ([5]; 1600 g ae/ha)	Activity (visual injury, 0 = no injury, 100 = complete kill) PAPRH-Susceptible ([5]; 3200 g ae/ha)	further results
O=C(O)COc1ccc(Cl)cc1Cl [2,4-D, (2,4-dichlorophenoxy)acetic acid]	21%	16%	50%	15%	53%	51%	22%	42%	33%	21%	19%	59%	85%	94%	99%	
COc1c(Cl)ccc(-c2cc(N)c(Cl)c(C(=O)O)n2)c1F [Compound I, 4-amino-3-chloro-6-(4-chloro-2-fluoro-3-methoxyphenyl)pyridine-2-carboxylic acid]																Activity (visual injury, 0 = no injury, 100 = complete kill) PAPRH-S1F00101 ([1]; 7.5 g ae/ha): 90%; Activity (visual injury, 0 = no injury, 100 = complete kill) PAPRH-S1F00101 ([1]; 10 g ae/ha): 90%; Activity (visual injury, 0 = no injury, 100 = complete kill) PAPRH-S2F01502 ([2]; 7.5 g ae/ha): 93%; Activity (visual injury, 0 = no injury, 100 = complete kill) PAPRH-S2F01502 ([2]; 10 g ae/ha): 94%; Activity (visual injury, 0 = no injury, 100 = complete kill) PAPRH-S4F00101 ([3]; 7.5 g ae/ha): 88%; Activity (visual injury, 0 = no injury, 100 = complete kill) PAPRH-S4F00101 ([3]; 10 g ae/ha): 94%; Activity (visual injury, 0 = no injury, 100 = complete kill) PAPRH-S4F00103 ([4]; 7.5 g ae/ha): 78%; Activity (visual injury, 0 = no injury, 100 = complete kill) PAPRH-S4F00103 ([4]; 10 g ae/ha): 95%; Activity (visual injury, 0 = no injury, 100 = complete kill) PAPRH-Susceptible ([5]; 7.5 g ae/ha): 95%; Activity (visual injury, 0 = no injury, 100 = complete kill) PAPRH-Susceptible ([5]; 10 g ae/ha): 97%
Cc1cc(Cl)ccc1OCC(=O)O [MCPA, 2-(4-chloro-2-methyl-phenoxy)acetic acid]	14%	23%	57%	28%	14%	58%	28%	37%	60%	23%	40%	57%	70%	89%	100%	
